Measured values taken from paper PMC4640232 (The Journal of Organic Chemistry, 2015).
pKd: −log10 of the molar value.

Molecular target: concanavalin A (ConA) (Canavalia ensiformis, UniProt P02866)
Experiment: isothermal titration calorimetry
Assay type: binding

Chain of concanavalin A (ConA) (P02866 164-281 limits assumed): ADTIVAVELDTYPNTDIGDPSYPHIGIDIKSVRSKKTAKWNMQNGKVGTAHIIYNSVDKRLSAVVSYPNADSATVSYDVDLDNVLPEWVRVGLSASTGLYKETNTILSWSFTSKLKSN
Chain of concanavalin A (ConA) (P02866 30-148 limits assumed): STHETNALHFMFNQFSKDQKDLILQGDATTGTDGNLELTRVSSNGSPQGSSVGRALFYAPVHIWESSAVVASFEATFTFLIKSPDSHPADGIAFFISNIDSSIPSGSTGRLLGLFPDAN

| Structure (SMILES) | pKd |
| --- | --- |
| CO[C@H]1O[C@H](CO)[C@@H](O)[C@H](O)[C@@H]1O [methyl α-mannoside] | 5.33 |
| CCCO[C@@H]1O[C@H](CO[C@H]2O[C@H](CO)[C@@H](O)[C@H](O)[C@@H]2O)[C@@H](O)[C@H](O[C@H]2O[C@H](CO)[C@@H](O)[C@H](O)[C@@H]2O)[C@@H]1O [compound 12, n-Propyl 3,6-Di-O-(α-D-mannopyranosyl)-β-D-mannopyranoside] | 5.49 |
